Patent publication US11401253B2, “16-methyl-oxacyclohexadecan-2-one and 16-methyl-azacyclohexadecan-2-one derivatives as antimicrobial agents” (THE UNIVERSITY OF MONTANA, priority 2017, dated 2022)
Converted amounts (≈) assume the structure as drawn. Like-named read-outs stand apart in the source and are kept apart here.

What was measured:
[1] = system: Staphylococcus aureus (13709); experiment: Antibiotic testing (MIC), S. aureus 13709; type: cell-based; details: growth inhibition ≥90% relative to drug-free controls, read-out: minimum inhibitory concentration, Staphylococcus aureus (13709)
Streptococcus pyogenes = experiment: Antibiotic testing (MIC), Streptococcus pyogenes; type: cell-based; details: growth inhibition ≥90%, read-out: minimum inhibitory concentration, Streptococcus pyogenes
Candida glabrata = experiment: Antibiotic testing (MIC), Candida glabrata; type: cell-based; details: Nakaseomyces glabratus; growth inhibition ≥90%; read-out: minimum inhibitory concentration, Candida glabrata
Bacillus subtilis = experiment: Antibiotic testing (MIC), Bacillus subtilis; type: cell-based; details: growth inhibition ≥90%, read-out: minimum inhibitory concentration, Bacillus subtilis
C. albicans = experiment: Antibiotic testing (MIC), C. albicans; type: cell-based; details: Candida albicans; growth inhibition ≥90%; read-out: minimum inhibitory concentration, C. albicans
B. anthracis = experiment: microbe, parasite or virus in culture; type: cell-based; details: Bacillus anthracis, read-out: minimum inhibitory concentration, B. anthracis
S. aureus CAIRD116 = experiment: Antibiotic testing, methicillin-resistant S. aureus CAIRD116; type: cell-based; details: methicillin-resistant strain
Source text: (§1) Both the methyl ester and the diacetate derivatives of BPL 76 slightly less but still very strong activity against the same four MRSA strains (Table 11). The activities of compounds BPL 76 and BPL 81 were compared to several known antibiotics against three methicillin-resistant strains of S. aureus [FIG. 6, comparative data provided by Hartford Hospital, Center for Anti-Infective Research and Development (CAIRD)].

S. aureus CAIRD142 = experiment: Antibiotic testing, methicillin-resistant S. aureus CAIRD142; type: cell-based; details: methicillin-resistant strain
Source text: as §1

S. aureus CAIRD148 = experiment: Antibiotic testing, methicillin-resistant S. aureus CAIRD148; type: cell-based; details: methicillin-resistant strain
Source text: as §1

S. aureus (NE277) = experiment: Antibiotic testing, methicillin-resistant S. aureus NE277; type: cell-based
Source text: as §1

MMP-3 = target: T1, MMP-3 (Homo sapiens, UniProt P08254); experiment: MMP-3 enzyme inhibition assay; type: biochemical
T1 construct: purchased BioMol
Protocol: The two fungi were also co-cultured under controlled conditions. P. fuscum was grown in pure culture in potato dextrose broth (10×400 mL). After 24 h, an agar cube (8 mm^3) impregnated with P. camembertii/clavigerum mycelium was added to each flask and the resulting co-culture was shaken for 6 more days (200 rpm, room temperature). At time of harvest, methanol (50 mL/flask) was added, the mycelia were removed by gravity filtration and the broth was extracted with chloroform (3×2 L). The chloroform was removed in vacuo to yield 663 mg of crude extract. The crude extract was verified to be active in the MMP-3, caspase-1 and caspase-3 enzyme inhibition assays. Enzyme inhibitory activity was determined using specific BioMol enzyme inhibition assay kits for drug discovery as described in Stierle, A; Stierle, D. The Berkeleylactones, Antibiotic Macrolides from Fungal Coculture. J. Nat. Prod. 80, 4, 1150-1160.

[2] = system: non-replicating persistence Mycobacterium tuberculosis (NRP-TB); experiment: Low oxygen recovery assay (LORA), non-replicating persistence Mtb; type: cell-based; details: Mycobacterium tuberculosis, read-out: MIC, LORA
[3] = system: Mycobacterium tuberculosis; experiment: microbe, parasite or virus in culture; details: read-out: MIC, MABA
[4] = system: Mycobacterium tuberculosis; details: normal (replicating) conditions; known antibiotics
Vero cell = experiment: Cytotoxicity (MTS), Vero cells; type: cell-based, monkey; details: Primates, 72 hours exposure
HepG2 = experiment: Cytotoxicity (MTS), HepG2 cells; type: cell-based; details: Homo sapiens, 72 hours exposure
J774 = experiment: Cytotoxicity (MTS), J774 cells; type: cell-based, murine; details: Mus musculus, 72 hours exposure
[5] = non-replicating persistence conditions, known antibiotics

T1 sequence (P08254 100-477): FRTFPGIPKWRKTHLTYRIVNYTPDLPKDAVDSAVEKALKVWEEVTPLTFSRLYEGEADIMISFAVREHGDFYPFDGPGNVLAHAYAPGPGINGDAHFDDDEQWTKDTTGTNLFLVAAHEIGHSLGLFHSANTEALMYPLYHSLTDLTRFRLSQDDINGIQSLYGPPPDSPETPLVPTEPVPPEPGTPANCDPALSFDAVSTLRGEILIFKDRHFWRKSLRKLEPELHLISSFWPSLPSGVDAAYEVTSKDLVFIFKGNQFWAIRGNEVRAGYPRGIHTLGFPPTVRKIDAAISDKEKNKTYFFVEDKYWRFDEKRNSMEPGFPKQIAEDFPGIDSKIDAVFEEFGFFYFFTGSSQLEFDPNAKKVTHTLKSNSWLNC

C[C@@H]1CCCCCCCCC[C@H](O)[C@H](OC(=O)CCC(=O)O)/C=C/C(=O)O1 [BPL 96, 4-(((5R,6S,16R,E)-6-hydroxy-16-methyl-2-oxooxacyclohexadec-3-en-5-yl)oxy)-4-oxobutanoic acid]
MIC [1]: 48 mg/L (≈ 125 µM)
MIC (Streptococcus pyogenes): > 96 mg/L
MIC (Candida glabrata): > 96 mg/L
MIC (Bacillus subtilis): 48 mg/L (≈ 125 µM)
MIC (C. albicans): > 96 mg/L
MIC (B. anthracis): > 96 mg/L

O=C(O)CCC(=O)O[C@H]1CCCCCCCCC[C@@H](CO)OC(=O)/C=C/[C@H]1O [BPL 98, 4-(((5R,6S,16S,E)-5-hydroxy-16-(hydroxymethyl)-2-oxooxacyclohexadec-3-en-6-yl)oxy)-4-oxobutanoic acid]
MIC [1]: > 100 mg/L
MIC (Streptococcus pyogenes): > 100 mg/L
MIC (Candida glabrata): > 100 mg/L
MIC (Bacillus subtilis): > 100 mg/L
MIC (C. albicans): > 100 mg/L
MIC (B. anthracis): > 100 mg/L
MIC (S. aureus CAIRD116; Staphylococcus aureus, CAIRD116): > 100 mg/L
antibiotic testing data (MIC), S. aureus CAIRD116 (S. aureus CAIRD116): >250 µM
MIC (S. aureus CAIRD142; Staphylococcus aureus, CAIRD142): > 100 mg/L
antibiotic testing data (MIC), S. aureus CAIRD142 (S. aureus CAIRD142): >250 µM
MIC (S. aureus CAIRD148; Staphylococcus aureus, CAIRD148): > 100 mg/L
antibiotic testing data (MIC), S. aureus CAIRD148 (S. aureus CAIRD148): >250 µM
MIC (S. aureus (NE277); Staphylococcus aureus, read-out: antibiotic testing data (MIC), S. aureus (NE277)): > 100 mg/L
antibiotic testing data (MIC), S. aureus (NE277) (S. aureus (NE277); methicillin-resistant strain): >250 µM
MMP-3 inhibition (MMP-3): weaker inhibitors

NNC(=O)c1ccncc1 [INH - Isoniazid, Isoniazid, reference compound]
MIC [2, 5]: > 128 µM
MIC [3]: 0.5 µM (≈ 0.0686 µg/mL)

CC(=O)NC[C@H]1CN(c2ccc(N3CCOCC3)c(F)c2)C(=O)O1 [LIZ - Linezolidum, Linezolidum, reference compound]
MIC [2, 5]: 2 µM (≈ 0.675 µg/mL)
MIC [3]: 2 µM (≈ 0.675 µg/mL)

Cc1ncc([N+](=O)[O-])n1CCO [MET - Metronidazole, Metronidazole, reference compound]
MIC [2, 5]: 449 µM (≈ 76.8 µg/mL)

COc1c(N2C[C@@H]3CCCN[C@@H]3C2)c(F)cc2c(=O)c(C(=O)O)cn(C3CC3)c12 [MOX - Moxifloxicin, Moxifloxicin, reference compound]
MIC, MABA [4]: 0.2 µM (≈ 0.0803 µg/mL)

O=[N+]([O-])c1cn2c(n1)OC[C@@H](OCc1ccc(OC(F)(F)F)cc1)C2 [PA824, reference compound]
MIC [2, 5]: 7 µM (≈ 2.51 µg/mL)
MIC [3]: 0.2 µM (≈ 0.0719 µg/mL)

CO[C@H]1/C=C/O[C@@]2(C)Oc3c(C)c(O)c4c(O)c(c(/C=N/N5CCN(C)CC5)c(O)c4c3C2=O)NC(=O)/C(C)=C\C=C\[C@H](C)[C@H](O)[C@@H](C)[C@@H](O)[C@@H](C)[C@H](OC(C)=O)[C@@H]1C [RMP - Rifampicin, Rifampicin, reference compound]
MIC [2]: 0.4 µM (≈ 0.329 µg/mL)
IC50 (Vero cell): > 100 mg/L
IC50 (HepG2): > 100 mg/L
IC50 (J774): 95.8 mg/L (≈ 116 µM)
MIC [3]: > 0.1 µM

COc1nc2ccc(Br)cc2cc1[C@@H](c1ccccc1)[C@@](O)(CCN(C)C)c1cccc2ccccc12 [TMC207, reference compound]
MIC [2]: 0.1 µM (≈ 0.0556 µg/mL)
IC50 (Vero cell): > 10 mg/L
IC50 (HepG2): > 10 mg/L
IC50 (J774): > 10 mg/L
MIC [3]: > 0.1 µM
